PubChem BioAssay (NCI)
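Results reflect a 48-hour exposure of cells in 96-well plates to compound at five concentrations. The concentration for 50% growth inhibition is given as GI50. At the TGI there is no net growth.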

Columns and labels:
Test in all cases: NCI-60 cell line screen, 48 h
TK-10 renal = tested on: TK-10 renal
DU-145 prostate = tested on: DU-145 prostate
MDA-MB-435 = tested on: MDA-MB-435
MOLT-4 leukemia = tested on: MOLT-4 leukemia
SK-MEL-5 melanoma = tested on: SK-MEL-5 melanoma
K-562 leukemia = tested on: K-562 leukemia
A498 renal = tested on: A498 renal
SK-MEL-2 melanoma = tested on: SK-MEL-2 melanoma
PC-3 prostate = tested on: PC-3 prostate
NCI-H226 lung = tested on: NCI-H226 lung
NCI-H522 lung = tested on: NCI-H522 lung
HS 578T breast = tested on: HS 578T breast
OVCAR-8 ovarian = tested on: OVCAR-8 ovarian
EKVX NSCLC = tested on: EKVX NSCLC
HCT-116 colon = tested on: HCT-116 colon
SF-539 CNS = tested on: SF-539 CNS
A549 NSCLC = tested on: A549 NSCLC
SN12C renal = tested on: SN12C renal
OVCAR-5 ovarian = tested on: OVCAR-5 ovarian
SNB-75 CNS = tested on: SNB-75 CNS
HL-60(TB) leukemia = tested on: HL-60(TB) leukemia
UACC-257 melanoma = tested on: UACC-257 melanoma
HOP-62 NSCLC = tested on: HOP-62 NSCLC
COLO 205 colon = tested on: COLO 205 colon
OVCAR-4 ovarian = tested on: OVCAR-4 ovarian
MALME-3M melanoma = tested on: MALME-3M melanoma
KM12 colon = tested on: KM12 colon
NCI/ADR-RES ovarian = tested on: NCI/ADR-RES ovarian
SF-268 CNS = tested on: SF-268 CNS
CCRF-CEM leukemia = tested on: CCRF-CEM leukemia
IGROV1 ovarian = tested on: IGROV1 ovarian
LOX IMVI melanoma = tested on: LOX IMVI melanoma
HT29 colon = tested on: HT29 colon
HCC-2998 colon = tested on: HCC-2998 colon
CAKI-1 renal = tested on: CAKI-1 renal
SW-620 colon = tested on: SW-620 colon
UACC-62 melanoma = tested on: UACC-62 melanoma
BT-549 breast = tested on: BT-549 breast
SK-MEL-28 melanoma = tested on: SK-MEL-28 melanoma
786-0 renal = tested on: 786-0 renal
MDA-MB-468 breast = tested on: MDA-MB-468 breast
SF-295 CNS = tested on: SF-295 CNS
M14 melanoma = tested on: M14 melanoma
MDA-MB-231 breast = tested on: MDA-MB-231 breast
MCF7 breast = tested on: MCF7 breast
NCI-H460 lung = tested on: NCI-H460 lung
OVCAR-3 ovarian = tested on: OVCAR-3 ovarian
UO-31 renal = tested on: UO-31 renal
HOP-92 NSCLC = tested on: HOP-92 NSCLC
T-47D breast = tested on: T-47D breast
RXF 393 renal = tested on: RXF 393 renal
NCI-H23 lung = tested on: NCI-H23 lung
HCT-15 colon = tested on: HCT-15 colon
SNB-19 CNS = tested on: SNB-19 CNS
SK-OV-3 ovarian = tested on: SK-OV-3 ovarian
ACHN renal = tested on: ACHN renal
U251 CNS = tested on: U251 CNS
RPMI-8226 leukemia = tested on: RPMI-8226 leukemia

SMILES: CC(=C(c1ccc(OCCCN(C)C)cc1)c1ccc(OCCCN(C)C)cc1)c1ccccc1
- GI50 (TK-10 renal): 714 nM
- TGI (TK-10 renal): 3560 nM
- GI50 (DU-145 prostate): 1100 nM
- TGI (DU-145 prostate): 3820 nM
- GI50 (MDA-MB-435): 470 nM
- TGI (MDA-MB-435): 1150 nM
- GI50 (MOLT-4 leukemia): 627 nM
- TGI (MOLT-4 leukemia): 2430 nM
- GI50 (SK-MEL-5 melanoma): 363 nM
- TGI (SK-MEL-5 melanoma): 679 nM
- GI50 (K-562 leukemia): 621 nM
- TGI (K-562 leukemia): 22000 nM
- GI50 (A498 renal): 3900 nM
- TGI (A498 renal): 7220 nM
- GI50 (SK-MEL-2 melanoma): 3010 nM
- TGI (SK-MEL-2 melanoma): 6160 nM
- GI50 (PC-3 prostate): 818 nM
- TGI (PC-3 prostate): 3280 nM
- GI50 (NCI-H226 lung): 3890 nM
- TGI (NCI-H226 lung): 8050 nM
- GI50 (NCI-H522 lung): 354 nM
- TGI (NCI-H522 lung): 746 nM
- GI50 (HS 578T breast): 448 nM
- TGI (HS 578T breast): 1780 nM
- GI50 (OVCAR-8 ovarian): 979 nM
- TGI (OVCAR-8 ovarian): 3760 nM
- GI50 (EKVX NSCLC): 2430 nM
- TGI (EKVX NSCLC): 5280 nM
- GI50 (HCT-116 colon): 370 nM
- TGI (HCT-116 colon): 847 nM
- GI50 (SF-539 CNS): 353 nM
- TGI (SF-539 CNS): 660 nM
- GI50 (A549 NSCLC): 753 nM
- TGI (A549 NSCLC): 3180 nM
- GI50 (SN12C renal): 2440 nM
- TGI (SN12C renal): 5290 nM
- GI50 (OVCAR-5 ovarian): 1160 nM
- TGI (OVCAR-5 ovarian): 4110 nM
- GI50 (SNB-75 CNS): 804 nM
- TGI (SNB-75 CNS): 4090 nM
- GI50 (HL-60(TB) leukemia): 389 nM
- TGI (HL-60(TB) leukemia): 1050 nM
- GI50 (UACC-257 melanoma): 360 nM
- TGI (UACC-257 melanoma): 699 nM
- GI50 (HOP-62 NSCLC): 2620 nM
- TGI (HOP-62 NSCLC): 5930 nM
- GI50 (COLO 205 colon): 396 nM
- TGI (COLO 205 colon): 744 nM
- GI50 (OVCAR-4 ovarian): 571 nM
- TGI (OVCAR-4 ovarian): 1800 nM
- GI50 (MALME-3M melanoma): 343 nM
- TGI (MALME-3M melanoma): 640 nM
- GI50 (KM12 colon): 771 nM
- TGI (KM12 colon): 2690 nM
- GI50 (NCI/ADR-RES ovarian): 1770 nM
- TGI (NCI/ADR-RES ovarian): 4650 nM
- GI50 (SF-268 CNS): 609 nM
- TGI (SF-268 CNS): 3100 nM
- GI50 (CCRF-CEM leukemia): 438 nM
- TGI (CCRF-CEM leukemia): 1130 nM
- GI50 (IGROV1 ovarian): 1170 nM
- TGI (IGROV1 ovarian): 4020 nM
- GI50 (LOX IMVI melanoma): 380 nM
- TGI (LOX IMVI melanoma): 706 nM
- GI50 (HT29 colon): 385 nM
- TGI (HT29 colon): 917 nM
- GI50 (HCC-2998 colon): 570 nM
- TGI (HCC-2998 colon): 2080 nM
- GI50 (CAKI-1 renal): 515 nM
- TGI (CAKI-1 renal): 1760 nM
- GI50 (SW-620 colon): 339 nM
- TGI (SW-620 colon): 708 nM
- GI50 (UACC-62 melanoma): 377 nM
- TGI (UACC-62 melanoma): 709 nM
- GI50 (BT-549 breast): 2440 nM
- TGI (BT-549 breast): 5420 nM
- GI50 (SK-MEL-28 melanoma): 376 nM
- TGI (SK-MEL-28 melanoma): 685 nM
- GI50 (786-0 renal): 352 nM
- TGI (786-0 renal): 736 nM
- GI50 (MDA-MB-468 breast): 358 nM
- TGI (MDA-MB-468 breast): 805 nM
- GI50 (SF-295 CNS): 403 nM
- TGI (SF-295 CNS): 848 nM
- GI50 (M14 melanoma): 386 nM
- TGI (M14 melanoma): 768 nM
- GI50 (MDA-MB-231 breast): 420 nM
- TGI (MDA-MB-231 breast): 907 nM
- GI50 (MCF7 breast): 213 nM
- TGI (MCF7 breast): 655 nM
- GI50 (NCI-H460 lung): 431 nM
- TGI (NCI-H460 lung): 1030 nM
- GI50 (OVCAR-3 ovarian): 454 nM
- TGI (OVCAR-3 ovarian): 1280 nM
- GI50 (UO-31 renal): 360 nM
- TGI (UO-31 renal): 733 nM
- GI50 (HOP-92 NSCLC): 508 nM
- TGI (HOP-92 NSCLC): 3280 nM
- GI50 (T-47D breast): 327 nM
- TGI (T-47D breast): 688 nM
- GI50 (RXF 393 renal): 339 nM
- TGI (RXF 393 renal): 874 nM
- GI50 (NCI-H23 lung): 2480 nM
- TGI (NCI-H23 lung): 5300 nM
- GI50 (HCT-15 colon): 635 nM
- TGI (HCT-15 colon): 2290 nM
- GI50 (SNB-19 CNS): 835 nM
- TGI (SNB-19 CNS): 3240 nM
- GI50 (SK-OV-3 ovarian): 3510 nM
- TGI (SK-OV-3 ovarian): 6790 nM
- GI50 (ACHN renal): 473 nM
- TGI (ACHN renal): 1040 nM
- GI50 (U251 CNS): 461 nM
- TGI (U251 CNS): 1020 nM
- GI50 (RPMI-8226 leukemia): 608 nM
- TGI (RPMI-8226 leukemia): 1820 nM
